From patent publication US8440711B2, “2-aryl-2-fluoropropanoic acids and derivatives and pharmaceutical compositions containing them” (Dompe Pha.r.ma S.p.A., priority 2006, dated 2013)
Counter-ions that a name gives are not always drawn. Like-named read-outs stand apart in the source and are kept apart here.

What was measured:
[1] = Protein binding in rat plasma (ultrafiltration); assay type: in vitro ADME; conditions: 37° C.
Procedure: (§1) Protein Binding was determined as follows: Duplicate rat plasma samples of each compound at 50 μg/mL concentration were incubated at 37° C. for 20 minutes under gentle shaking. Then samples were ultrafiltrated through Centrifree® micropartition devices by centrifugation at 1500 g for 15 minutes. The ultrafiltrate was subjected to HPLC-MS/MS quantitative analysis (Column Luna C18, 150×2 mm ID 5 μm (Phenomenex), mobile phase: eluent A) 0.02M HCOO—NH4+ (pH 4.3 with HCOOH); eluent B) CH3OH).

[2] = Pharmacokinetic profile after intravenous and oral administration; assay type: in vivo; conditions: male, rat, plasma; for bioavailability: po; for half-life: read-out: t½ (converted)
Procedure: The pharmacokinetic profile of the compounds of formula (I) was evaluated in male mice or rats after intravenous and oral administration. The pharmacokinetic analysis was performed using plasmatic concentrations of the compounds at different times. The data were evaluated by Kinetica 2000™, Version 3.0 Software [InnaPhase Corporation, World headquarters, 1700 Race Street, Philadelphia, Pa. 19103 USA]. The pharmacokinetic parameters were calculated according the following formulas: Kel=elimination rate constant; t1/2=In2/Kel, AUC=AUC0n+AUCextra, where AUC0n=AUC from t=0 to t last (Trapezoidal Method) and AUCextra=extrapolated AUC=Clast/Kel; Clearance=D/AUC; Vd=Cl/Kel; Oral bioavailability F=(AUCp.o./AUCi.v.)*(Di.v./Dp.o.)*100.

[3] = test system: GRO-α induced chemotaxis of polymorphonucleate leukocytes (PMNs); test: GRO-α induced chemotaxis of human PMNs; assay type: cell-based; conditions: Leukocyte; for inhibition at 0.01 µM: 10^−8 M
Procedure: (§2) The compounds of the invention of formula (I) were evaluated in vitro for their ability to inhibit chemotaxis of polymorphonucleate leukocytes (hereinafter referred to as PMNs) and monocytes induced by the fractions of CXCL8 and GRO-α and C5a and compared to the corresponding non fluorinated parent compounds. For this purpose, in order to isolate the PMNs from heparinized human blood, taken from healthy adult volunteers, mononucleates were removed by means of sedimentation on dextran (according to the procedure disclosed by W. J. Ming et al., J. Immunol., 138, 1469, 1987) and red blood cells by a hypotonic solution. The cell vitality was calculated by exclusion with Trypan blue, whilst the ratio of the circulating polymorphonucleates was estimated on the cytocentrifugate after staining with Diff Quick.
GRO-α induced chemotaxis inhibition was evaluated in an analogous assay.
(§3) In the chemotaxis experiments, the PMNs were incubated with the compounds of the invention of formula (I) for 15′ at 37° C. in an atmosphere containing 5% CO2.
(§4) During the chemotaxis assay (W. Falket et al., J. Immunol. Methods, 33, 239, 1980) PVP-free filters with a porosity of 5 μm and microchambers suitable for replication were used.
(§5) The compounds of the invention in formula (I) were evaluated at a concentration ranging between 10^−6 and 10^−10 M; for this purpose they were added, at the same concentration, both to the lower pores and the upper pores of the microchamber. Evaluation of the ability of the compounds of the invention of formula (I) to inhibit the chemotaxis of human monocytes was carried out according to the method disclosed (Van Damme J. et al., Eur. J. Immunol., 19, 2367, 1989).

[4] = test system: CXCL8 induced chemotaxis of polymorphonucleate leukocytes (PMNs); test: CXCL8 induced chemotaxis of human PMNs; assay type: cell-based; conditions: Leukocyte; for inhibition at 0.001 µM: 10^−9 M
Procedure: as §2
In the CXCL8 induced chemotaxis assay human recombinant CXCL8 (Pepro Tech) was used as stimulating agents in the chemotaxis experiments: the lyophilized protein was dissolved in a volume of HBSS containing 0.2% bovin serum albumin (BSA) so thus to obtain a stock solution having a concentration of 10^−5 M to be diluted in HBSS to a concentration of 10^−9 M, for the chemotaxis assays.
as §3, §4, §5

[5] = test system: C5a induced chemotaxis of polymorphonucleate leukocytes (PMNs); test: C5a induced chemotaxis of human PMNs; assay type: cell-based; conditions: Leukocyte, 10^−8 M, Table 2
Procedure: as §2
In the C5a induced chemotaxis assay the fractions hr-C5a and hrC5a-desArg (Sigma) were used as stimulating agents in chemotaxis experiments, obtaining practically identical results. Lyophilized C5a was dissolved in a volume of HBSS containing 0.2% BSA so as to obtain a stock solution having a concentration of 10^−5 M, to be diluted in HBSS to a concentration of 10^−9 M, for the chemotaxis assays.
as §3
The chemotactic activity of the C5a was evaluated on human circulating polymorphonucleates (PMNs) resuspended in HBSS at a concentration of 1.5×10^6 PMNs per nil.
as §4, §5

[6] = Protein binding, experiments performed in mouse; assay type: in vitro ADME; conditions: plasma; values marked *: experiments performed in mouse
Procedure: as §1

[7] = values marked *: 10^−7 M, Table 1, read-out: GRO-α (% of inhibition at 10^−7 M)
[8] = Table 1, read-out: CXCL8 (% inhibition at 10^−9 M)

C[C@@H](C(N)=O)c1ccc(OS(=O)(=O)C(F)(F)F)cc1
fraction unbound at 20 min, 50 μg/mL [1]: 0.06
Vd [2]: 0.55 L/kg
clearance [2]: 3.67 mL/min/kg
bioavailability [2]: 72%
half-life [2]: 1.9 h

CC(O)(C(N)=O)c1ccc(OS(=O)(=O)C(F)(F)F)cc1 (centres unmarked)
fraction unbound at 20 min, 50 μg/mL [1]: 0.2
Vd [2]: 1.33 L/kg
clearance [2]: 0.65 mL/min/kg
bioavailability [2]: 85%
half-life [2]: 25 h

CC(F)(C(N)=O)c1ccc(OS(=O)(=O)C(F)(F)F)cc1 (centres unmarked) (as salt: methanesulfonate) [Compound 8, 4-(2-amino-1-fluoro-1-methyl-2-oxoethyl)phenyl trifluoromethanesulfonate]
melting point: 85 to 87 °C

CC(F)(C(=O)O)c1ccc(OS(=O)(=O)C(F)(F)F)cc1 (centres unmarked) [Compound 1, 2-Fluoro-2-(4-{[(trifluoromethyl)sulfonyl]oxy}phenyl) propanoic acid]
inhibition at 0.1 µM [3, 7]: 47 ± 10%

C[C@@](F)(C(=O)O)c1ccc(OS(=O)(=O)C(F)(F)F)cc1 [Compound 2, (2S)-2-fluoro-2-(4-{[(trifluoromethyl)sulfonyl]oxy}phenyl)propanoic acid]
inhibition at 0.1 µM [3, 7]: 43 ± 15%
melting point: 91 to 94 °C

C[C@](F)(C(=O)O)c1ccc(OS(=O)(=O)C(F)(F)F)cc1 [Compound 3, (2R)-2-fluoro-2-(4-{[(trifluoromethyl)sulfonyl]oxy}phenyl)propanoic acid]
inhibition at 0.1 µM [3, 7]: 49 ± 6%
melting point: 90 to 94 °C

C[C@@](F)(C(=O)NO)c1ccc(OS(=O)(=O)C(F)(F)F)cc1 [Compound 4, 4-[(1S)-1-fluoro-2-(hydroxyamino)-1-methyl-2-oxoethyl}phenyl trifluoromethanesulfonate]
inhibition at 0.01 µM ([3]; Table 1): 55 ± 10%

CN(O)C(=O)[C@@](C)(F)c1ccc(OS(=O)(=O)C(F)(F)F)cc1 [Compound 5, 4-[(1S)-1-fluoro-2-[hydroxyl(methyl)amino]-1-methyl-2-oxoethyl}phenyl trifluoromethane sulfonate]
inhibition at 0.01 µM ([3]; Table 1): 40 ± 8%

CC(F)(C(=O)O)c1cccc(C(=O)c2ccccc2)c1 (centres unmarked) [Compound 6, 2-(3-benzoylphenyl)-2-fluoropropanoic acid]
inhibition at 0.01 µM ([3]; Table 1): 42 ± 4%

CC(F)(C(=O)O)c1cccc(Nc2nc(C(F)(F)F)cs2)c1 (centres unmarked) [Compound 7]
inhibition at 0.001 µM [4, 8]: 21 ± 6%
inhibition at 0.01 µM ([3]; Table 1): 60 ± 10%

CC(F)(C(N)=O)c1ccc(OS(=O)(=O)C(F)(F)F)cc1 (centres unmarked) [Compound 8, 4-(2-amino-1-fluoro-1-methyl-2-oxoethyl)phenyl trifluoromethanesulfonate]
inhibition at 0.001 µM [4, 8]: 50 ± 9%
inhibition at 0.01 µM ([3]; Table 1): 57 ± 12%

C[C@](F)(C(N)=O)c1ccc(OS(=O)(=O)C(F)(F)F)cc1 [Compound 9, 4-[(1R)-2-amino-1-fluoro-1-methyl-2-oxoethyl)phenyl trifluoromethanesulfonate]
inhibition at 0.01 µM ([3]; Table 1): 53 ± 9%

C[C@@](F)(C(N)=O)c1ccc(OS(=O)(=O)C(F)(F)F)cc1 [Compound 10, 4-[(1S)-2-amino-1-fluoro-1-methyl-2-oxoethyl)phenyl trifluoromethanesulfonate]
inhibition at 0.001 µM [4, 8]: 50 ± 6%
inhibition at 0.01 µM ([3]; Table 1): 10 ± 12%

CONC(=O)C(C)(F)c1ccc(OS(=O)(=O)C(F)(F)F)cc1 (centres unmarked) [Compound 11, 4-[1-fluoro-2-(methoxyamino)-1-methyl-2-oxoethyl]phenyl trifluoromethanesulfonate]
inhibition at 0.1 µM ([4]; values marked *: 10^−7 M, Table 1, read-out: CXCL8 (% of inhibition at 10^−7 M)): 40 ± 10%
inhibition at 0.01 µM ([3]; Table 1): 7 ± 8%

CC(C)NC(=O)C(C)(F)c1ccc(OS(=O)(=O)C(F)(F)F)cc1 (centres unmarked) [Compound 12, 4-[1-fluoro-2-(isopropylamino)-1-methyl-2-oxoethyl]phenyl trifluoromethanesulfonate]
inhibition at 0.1 µM [3, 7]: 45 ± 8%

CC(F)(C(N)=O)c1cccc(C(=O)c2ccccc2)c1 (centres unmarked) [Compound 13, 2-(3-benzoylphenyl)-2-fluoropropanamide]
inhibition at 0.1 µM ([4]; marked *, no footnote in Table 2 (Table 1: * = 10^−7 M), read-out: CSCL8 (% inhibition), value marked *): 52 ± 8%
inhibition at 0.1 µM ([3]; marked *, no footnote in Table 2 (Table 1: * = 10^−7 M), read-out: GRO-α (% inhibition), value marked *): 50 ± 12%
inhibition at 0.01 µM [5]: 47 ± 9%

CC(F)(C(N)=O)c1cccc(Nc2nc(C(F)(F)F)cs2)c1 (centres unmarked) [Compound 14, 2-fluoro-2-(3-{[4-(trifluoromethyl)-1,3-thiazol-2-yl]amino}phenyl)propanamide]
inhibition at 0.001 µM ([4]; Table 2, read-out: CSCL8 (% inhibition at 10^−9 M)): 36 ± 12%
inhibition at 0.01 µM ([3]; Table 2): 55 ± 7%
inhibition at 0.01 µM [5]: 33 ± 5%

C[C@H](NC(=O)[C@](C)(F)c1ccc(OS(=O)(=O)C(F)(F)F)cc1)C(=O)O [Compound 15, (2S)-2-{[(2R)-2-fluoro-2-(4-{[(trifluoromethyl)sulfonyl]oxy}phenyl)propanoyl]amino}propanoic acid]
inhibition at 0.001 µM [4, 8]: 55 ± 8%

C[C@H](NC(=O)C(C)(F)c1cccc(Nc2nc(C(F)(F)F)cs2)c1)C(=O)O (stereo partly drawn) [Compound 16, (2S)-2-{[2-fluoro-2-(3-{[4-(trifluoromethyl)-1,3-thiazol-2-yl]amino}phenyl)propanoyl]amino}propanoic acid]
inhibition at 0.001 µM [4, 8]: 50 ± 12%

C[C@](F)(C(=O)NS(C)(=O)=O)c1ccc(OS(=O)(=O)C(F)(F)F)cc1 [Compound 17, 4-{(1R)-1-fluoro-1-methyl-2-[(methylsulfonyl)amino]-2-oxoethyl}phenyl trifluoromethanesulfonate]
inhibition at 0.01 µM ([3]; Table 1): 57 ± 14%

C[C@@](F)(C(=O)NCCCN1CCCC1)c1ccc(OS(=O)(=O)C(F)(F)F)cc1 [Compound 18]
inhibition at 0.01 µM [5]: 53 ± 5%

C[C@](F)(C(=O)NC[C@H]1CCCN1)c1ccc(OS(=O)(=O)C(F)(F)F)cc1 [Compound 19, 4-((1R)-1-fluoro-1-methyl-2-oxo-2-{[(2R)-pyrrolidin-2-ylmethyl]amino}ethyl)phenyl trifluoromethanesulfonate]
inhibition at 0.01 µM [5]: 45 ± 4%

C[C@](F)(C(N)=O)c1ccc(OS(=O)(=O)C(F)(F)F)cc1 [drawing 24]
fraction unbound at 20 min, 50 μg/mL [6]: 0.05
Vd [2]: 0.631 L/kg
clearance [2]: 0.53 mL/min/kg
bioavailability [2]: 46.8%
half-life [2]: 13.8 h

C[C@@](F)(C(N)=O)c1ccc(OS(=O)(=O)C(F)(F)F)cc1 [drawing 25]
fraction unbound at 20 min, 50 μg/mL [6]: 0.08
Vd [2]: 1.47 L/kg
clearance [2]: 2.28 mL/min/kg
bioavailability [2]: 84.2%
half-life [2]: 9.1 h
